Experimental data as given in US20200181132A1, “QUINOXALINE AND PYRIDOPYRAZINE DERIVATIVES AS PI3K-BETA INHIBITORS” (JANSSEN PHARMACEUTICA NV, priority 2017, published 2020).
Like-named read-outs stand apart in the source and are kept apart here.

Key:
[1] = test system: phosphorylation of Akt at Ser473 in PC-3 cells; assay: Cellular assay: phospho-Akt (Ser473) MSD ELISA in PC-3 cells; type: cell-based; conditions: 60 min incubation with compound, read-out: IC50 pAkt_S473
Description: (§1) Cellular activity of PI3Kβ inhibitors was determined by quantifying the phosphorylation of Akt in PC-3 cells. Akt phosphorylated at Ser473 and Thr308 were measured using an enzyme-linked immunosorbent assay (ELISA; Meso Scale Discovery (MSD), Gaithersburg, Md.) and specific primary antibodies from MSD.
(§2) On day 1, PC3 cells (ATCC # […]) were seeded into PerkinElmer MW96 plates at 25.000 cells per well, in 75 μl complete culture medium (DMEM high glucose, AQmedia™, D0819, Sigma-Aldrich) containing 10% heat inactivated FCS and incubated at 37° C., 5% CO2 during 24 hours. On day 2, compound or DMSO (0.3%) was added and cells were further incubated for 60 min at 37° C., 5% CO2 in a total volume of 100 μl of medium.
(§3) The phosphoprotein assay was executed according to vendor instructions in the Phospho-Akt (Ser473) Assay Whole Cell Lysate Kit (MSD # K15100D-3) and the Phospho-Akt (Thr308) Assay Whole Cell Lysate Kit (MSD # K151DYD-3) using the lysis, blocking and wash buffer provided.
(§4) Briefly, at the end of the cell treatment period, media were removed by aspiration and adherent cells were lysed in 50 μl ice-cold lysis buffer. MSD plates are supplied pre-coated with capture antibodies for Phospho-Akt (Ser473 and Thr308). After blocking, lysates from tissue culture plates were added and plates were washed. Then, a solution containing the detection antibody (anti-total Akt conjugated with an electrochemiluminescent compound-MSD Sulfo-tag label) was added. The signals were detected using an MSD SECTOR Imager 6000 and are proportional to the phospho-Akt titres.
(§5) Data were processed. The percentage of inhibition was plotted against the log concentration of test compounds, and the sigmoidal log concentration-effect curve of best fit was calculated by nonlinear regression analysis. From these concentration-response curves, the IC50 values were calculated. Five concentrations were used for curve fitting.

[2] = test system: phosphorylation of Akt at Thr308 in PC-3 cells; assay: Cellular assay: phospho-Akt (Thr308) MSD ELISA in PC-3 cells; type: cell-based; conditions: 60 min incubation with compound, read-out: IC50 pAkt_Thr308
Description: as §1, §2, §3, §4, §5

MTOR_h = target: T1, MTOR_h (Homo sapiens, UniProt P42345); assay: Enzyme binding assay (KINOMEscan), MTOR; conditions: DiscoveRx
T1 construct: purchased DiscoveRx Corporation
Description: (§6) Enzyme Binding Assays (KINOMEscan®)
(§7) Kinase enzyme binding affinities of compounds disclosed herein were determined using the KINOMEscan technology performed by DiscoveRx Corporation, San Diego, Calif., USA (www.kinomescan.com). Table A reports the obtained Kd values (nM), with the Kd being the inhibitor binding constant: […]

PIK3Cβ_h = target: T2, PIK3Cβ_h (Homo sapiens, UniProt P42338); assay: Enzyme binding assay (KINOMEscan), PIK3Cβ; conditions: DiscoveRx
T2 construct: purchased DiscoveRx Corporation
Description: as §6, §7

PIK3Cδ_h = target: T3, PIK3Cδ_h (Homo sapiens, UniProt O00329); assay: Enzyme binding assay (KINOMEscan), PIK3Cδ; conditions: DiscoveRx
T3 construct: purchased DiscoveRx Corporation
T3 sequence (O00329 1-1044): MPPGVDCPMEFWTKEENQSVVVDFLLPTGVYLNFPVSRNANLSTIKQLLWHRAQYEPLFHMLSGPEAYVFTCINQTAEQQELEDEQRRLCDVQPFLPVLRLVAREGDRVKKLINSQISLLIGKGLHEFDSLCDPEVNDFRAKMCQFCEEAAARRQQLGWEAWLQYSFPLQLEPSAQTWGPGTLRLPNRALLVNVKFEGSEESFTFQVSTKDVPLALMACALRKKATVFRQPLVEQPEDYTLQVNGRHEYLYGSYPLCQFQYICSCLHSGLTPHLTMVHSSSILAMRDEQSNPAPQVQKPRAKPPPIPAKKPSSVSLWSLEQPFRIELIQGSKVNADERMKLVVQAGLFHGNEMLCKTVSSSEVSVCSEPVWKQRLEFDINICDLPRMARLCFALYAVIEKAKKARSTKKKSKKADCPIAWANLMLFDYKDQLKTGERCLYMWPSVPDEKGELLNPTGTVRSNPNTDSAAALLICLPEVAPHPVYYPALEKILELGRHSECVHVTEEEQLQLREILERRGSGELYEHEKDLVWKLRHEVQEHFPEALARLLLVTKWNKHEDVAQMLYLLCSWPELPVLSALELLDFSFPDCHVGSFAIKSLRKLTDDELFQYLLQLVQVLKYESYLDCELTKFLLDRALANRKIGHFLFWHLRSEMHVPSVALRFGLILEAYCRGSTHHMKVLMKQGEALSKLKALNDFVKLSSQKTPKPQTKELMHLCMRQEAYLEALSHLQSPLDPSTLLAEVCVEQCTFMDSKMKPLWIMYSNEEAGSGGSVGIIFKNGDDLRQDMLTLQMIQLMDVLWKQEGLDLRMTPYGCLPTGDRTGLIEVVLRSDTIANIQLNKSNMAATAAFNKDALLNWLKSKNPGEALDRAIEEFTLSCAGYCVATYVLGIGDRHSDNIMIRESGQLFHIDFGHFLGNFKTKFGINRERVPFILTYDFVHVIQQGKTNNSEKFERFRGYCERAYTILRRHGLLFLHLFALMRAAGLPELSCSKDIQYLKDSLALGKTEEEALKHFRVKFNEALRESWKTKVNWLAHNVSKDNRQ
Description: as §6, §7

PIK3Cγ_h = target: T4, PIK3Cγ_h (Homo sapiens, UniProt P48736); assay: Enzyme binding assay (KINOMEscan), PIK3Cγ; conditions: DiscoveRx
T4 construct: purchased DiscoveRx Corporation
Description: as §6, §7

PIK3Cα_h = target: T5, PIK3Cα_h (Homo sapiens, UniProt P42336); assay: Enzyme binding assay (KINOMEscan), PIK3Cα; conditions: DiscoveRx
T5 construct: purchased DiscoveRx Corporation
Description: as §6, §7

T5 sequence (P42336 whole entry): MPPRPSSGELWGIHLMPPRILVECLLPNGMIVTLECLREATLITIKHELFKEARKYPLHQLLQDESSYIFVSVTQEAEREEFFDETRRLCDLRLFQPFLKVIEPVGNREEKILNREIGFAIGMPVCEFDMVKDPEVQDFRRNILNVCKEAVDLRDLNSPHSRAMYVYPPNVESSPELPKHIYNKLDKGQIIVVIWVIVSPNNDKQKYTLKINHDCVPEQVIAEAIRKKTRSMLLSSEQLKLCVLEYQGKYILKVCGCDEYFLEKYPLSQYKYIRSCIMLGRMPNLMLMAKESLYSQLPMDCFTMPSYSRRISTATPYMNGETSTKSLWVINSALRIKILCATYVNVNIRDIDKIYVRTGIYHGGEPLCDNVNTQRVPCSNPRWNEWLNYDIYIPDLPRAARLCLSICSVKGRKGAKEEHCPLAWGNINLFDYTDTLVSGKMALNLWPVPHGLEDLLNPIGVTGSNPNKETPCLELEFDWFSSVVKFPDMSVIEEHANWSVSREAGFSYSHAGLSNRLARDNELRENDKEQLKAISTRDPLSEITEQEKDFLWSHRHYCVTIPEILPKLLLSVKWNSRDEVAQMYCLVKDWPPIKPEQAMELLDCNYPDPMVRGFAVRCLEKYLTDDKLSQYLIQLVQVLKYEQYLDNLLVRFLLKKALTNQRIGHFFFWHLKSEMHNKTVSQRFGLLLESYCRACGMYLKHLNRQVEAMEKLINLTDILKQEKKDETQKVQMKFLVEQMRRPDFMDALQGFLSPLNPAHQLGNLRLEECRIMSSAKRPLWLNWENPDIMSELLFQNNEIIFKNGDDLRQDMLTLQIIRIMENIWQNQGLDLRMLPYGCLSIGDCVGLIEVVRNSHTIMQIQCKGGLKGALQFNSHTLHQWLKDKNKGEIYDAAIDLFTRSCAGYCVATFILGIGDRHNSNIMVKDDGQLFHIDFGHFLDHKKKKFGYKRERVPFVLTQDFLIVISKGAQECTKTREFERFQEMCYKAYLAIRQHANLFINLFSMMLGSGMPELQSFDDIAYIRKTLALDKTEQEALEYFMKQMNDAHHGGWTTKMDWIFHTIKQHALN
T2 sequence (P42338 whole entry): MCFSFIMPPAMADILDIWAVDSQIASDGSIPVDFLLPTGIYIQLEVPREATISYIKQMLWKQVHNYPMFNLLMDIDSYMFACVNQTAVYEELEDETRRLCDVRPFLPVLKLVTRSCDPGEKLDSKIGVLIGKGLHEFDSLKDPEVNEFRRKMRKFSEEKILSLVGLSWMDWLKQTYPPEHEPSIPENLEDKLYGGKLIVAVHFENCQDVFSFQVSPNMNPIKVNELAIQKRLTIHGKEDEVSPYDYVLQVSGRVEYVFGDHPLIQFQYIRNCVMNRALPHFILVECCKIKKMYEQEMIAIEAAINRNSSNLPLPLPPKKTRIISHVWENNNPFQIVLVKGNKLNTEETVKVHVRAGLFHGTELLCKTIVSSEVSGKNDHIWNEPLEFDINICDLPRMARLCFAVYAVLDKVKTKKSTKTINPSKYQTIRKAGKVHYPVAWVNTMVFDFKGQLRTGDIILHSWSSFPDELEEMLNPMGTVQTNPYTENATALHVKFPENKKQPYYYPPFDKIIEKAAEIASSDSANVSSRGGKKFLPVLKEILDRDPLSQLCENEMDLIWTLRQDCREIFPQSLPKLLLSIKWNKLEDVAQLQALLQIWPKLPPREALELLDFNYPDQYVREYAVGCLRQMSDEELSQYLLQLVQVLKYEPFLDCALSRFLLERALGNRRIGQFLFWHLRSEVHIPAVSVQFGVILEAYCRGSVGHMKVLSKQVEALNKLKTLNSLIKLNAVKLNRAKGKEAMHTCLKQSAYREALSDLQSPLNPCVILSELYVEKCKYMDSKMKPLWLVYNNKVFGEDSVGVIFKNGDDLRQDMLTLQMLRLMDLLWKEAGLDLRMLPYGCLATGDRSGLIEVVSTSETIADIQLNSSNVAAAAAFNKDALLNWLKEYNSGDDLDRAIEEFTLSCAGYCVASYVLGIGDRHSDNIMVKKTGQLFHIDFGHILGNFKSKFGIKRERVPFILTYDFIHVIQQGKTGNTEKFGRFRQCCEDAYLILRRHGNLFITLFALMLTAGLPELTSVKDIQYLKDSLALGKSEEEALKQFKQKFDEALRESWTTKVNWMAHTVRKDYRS
T4 sequence (P48736 whole entry): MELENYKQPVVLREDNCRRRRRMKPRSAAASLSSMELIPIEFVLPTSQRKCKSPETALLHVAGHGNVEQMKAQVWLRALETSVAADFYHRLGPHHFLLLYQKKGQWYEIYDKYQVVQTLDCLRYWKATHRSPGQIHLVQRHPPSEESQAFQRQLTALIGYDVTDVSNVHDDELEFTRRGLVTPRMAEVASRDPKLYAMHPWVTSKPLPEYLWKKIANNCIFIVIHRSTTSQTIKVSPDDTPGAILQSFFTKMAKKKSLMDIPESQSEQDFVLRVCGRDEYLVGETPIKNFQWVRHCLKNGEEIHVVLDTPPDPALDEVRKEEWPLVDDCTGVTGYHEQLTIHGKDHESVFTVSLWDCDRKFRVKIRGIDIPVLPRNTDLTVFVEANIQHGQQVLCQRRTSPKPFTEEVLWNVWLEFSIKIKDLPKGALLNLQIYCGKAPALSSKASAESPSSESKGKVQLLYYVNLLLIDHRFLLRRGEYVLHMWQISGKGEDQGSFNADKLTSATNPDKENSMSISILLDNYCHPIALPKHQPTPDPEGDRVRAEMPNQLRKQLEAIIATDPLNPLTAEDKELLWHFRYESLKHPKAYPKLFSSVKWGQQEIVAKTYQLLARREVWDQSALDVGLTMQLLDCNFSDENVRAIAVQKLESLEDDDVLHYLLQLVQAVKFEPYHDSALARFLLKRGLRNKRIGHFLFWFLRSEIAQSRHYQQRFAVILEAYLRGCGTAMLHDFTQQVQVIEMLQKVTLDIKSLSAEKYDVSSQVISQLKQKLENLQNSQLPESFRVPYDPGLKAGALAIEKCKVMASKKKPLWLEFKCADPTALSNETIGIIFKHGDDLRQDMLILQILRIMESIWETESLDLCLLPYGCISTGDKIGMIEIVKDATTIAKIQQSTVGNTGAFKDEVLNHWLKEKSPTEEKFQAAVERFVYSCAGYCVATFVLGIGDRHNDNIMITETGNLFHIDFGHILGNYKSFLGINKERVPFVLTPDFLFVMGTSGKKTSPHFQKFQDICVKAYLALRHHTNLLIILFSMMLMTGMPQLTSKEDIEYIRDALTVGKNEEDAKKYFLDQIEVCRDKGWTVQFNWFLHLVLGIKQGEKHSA

| IC50 ([1]; Homo sapiens, PC-3, 1 h) [µM] | IC50 ([2]; Homo sapiens, PC-3, 1 h) [µM] | Kd (MTOR_h) [µM] | Kd (PIK3Cβ_h) [µM] | Kd (PIK3Cδ_h) [µM] | Kd (PIK3Cγ_h) [µM] | melting point [°C] | Kd (PIK3Cα_h) [µM] | IC50 [1] [µM] | IC50 [2] [µM] | Compound |
| --- | --- | --- | --- | --- | --- | --- | --- | --- | --- | --- |
| > 0.513 | > 0.513 | > 30.2 | 1.55 | 22.4 | > 30.2 | 110 | 28.8 | – | – | Cc1nccc(N2CCCC2c2cc(C(=O)N(C)C)cc3ncc(N4CCOCC4)nc23)n1 (stereo not drawn) [Compound 4] |
| ~0.002 | 0.04 | 11.5 | 0.003 | 0.166 | 1 | 191 | 0.447 | – | – | O=C(NCCO)c1cc(C2CCCN2c2cncc(F)c2)c2nc(N3CCOCC3)cnc2c1 (stereo not drawn) [Compound 43] |
| > 0.513 | > 0.513 | > 30.2 | 2.04 | 25.1 | > 30.2 | 186 | > 30.2 | – | – | Cc1cc(N2CCCC2c2cc(C(=O)N(C)C)cc3ncc(N4CCOCC4)nc23)nc(C)n1 (stereo not drawn) [Compound 3] |
| > 0.513 | > 0.513 | 30.9 | 1.26 | 15.5 | 25.7 | 244 | 16.2 | – | – | Cc1ccncc1CNc1cc(C(=O)NCCO)cc2ncc(N3CCOCC3)nc12 [Compound 28] |
| – | – | 12 | 0.008 | 1.44 | 4.79 | 190 | 15.5 | > 0.513 | > 0.513 | CC(Nc1cncc(F)c1)c1cc(C(=O)NCCN(C)C)cc2ncc(N3CCOCC3)nc12 (single isomer, unassigned) [Compound 35] |
| – | – | > 30.2 | 0.0004 | 0.166 | 3.89 | 194 | 2.19 | 0.014 | 0.007 | CC(Nc1cncc(F)c1)c1cc(C(=O)NCCN(C)C)cc2ncc(N3CCOCC3)nc12 (single isomer, unassigned) [Compound 34] |
| 0.005 | 0.004 | > 30.2 | 0.0001 | 0.295 | 3.39 | 206 | 1.7 | – | – | CN(C)CCNC(=O)c1cc(C2CCCN2c2cncc(F)c2)c2nc(N3CCOCC3)cnc2c1 (stereo not drawn) [Compound 36] |
| – | – | > 30.2 | 5.49 | 22.4 | > 30.2 | 180 | > 30.2 | > 0.513 | > 0.513 | CC(Nc1cncc(F)c1)c1cc(C(=O)N2CC3(C2)CS(=O)(=O)C3)cc2ncc(N3CCOCC3)nc12 (single isomer, unassigned) [Compound 32] |
| > 0.513 | > 0.513 | > 30.2 | 0.162 | 5.89 | 20.9 | 138 | > 30.2 | – | – | Cc1cc(N2CCCC2c2cc(C(=O)N(C)C)cc3ncc(N4CCOCC4)nc23)cc(C)n1 (stereo not drawn) [Compound 2] |
